Marks after values point to notes of the source that are not given here.

For experiment [1], the system named is IL-1β-stimulated PGE2 secretion in articular chondrocytes. As to the kind of experiment: IL-1β-stimulated PGE2 secretion in articular chondrocytes (EIA). The format is cell-based, rabbit. The conditions noted are these: for C8 inhibitory effect (%inhibition) on PGE2 secretion: DMEM with 2% FCS, 20 h; for decrease of PGE2 production induced by IL-1β: IL-1β 20 h. How it is done: We tested the effect of C8 on the IL-1β-stimulated secretion of PGE2 in chondrocytes. PGE2 synthesis takes place mainly in response to cell activation by IL-1β, and its generation accounts for many of the actions induced by this cytokine. In vitro, IL-1β induces the expression of COX-2 by chondrocytes, which results in increased PGE2 production. PGE2 release thus represents a powerful IL-1β- and PLA2-dependent inflammatory marker in our cell model. Chondrocytes were treated for 20 h with IL-1β alone or 1 h after the addition of C8. […] In DMEM alone, at concentrations of 0.31-, 0.62-, 0.94-, and 1.24-µM, C8 decreased the production of PGE2 induced by IL-1β by 59-, 58-, 74-, and 80-%, respectively (Fig. 4A). In DMEM supplemented with 0.1% BSA, at concentrations of 0.31-, 0.62-, 0.94-, 1.24-, 2.48-, and 4.96-µM, C8 decreased the production of PGE2 induced by IL-1β by 31-, 30-, 45-, 43-, 81-, and 92-%, respectively (Fig. 4B). In DMEM supplemented with 2% FCS, at concentrations of 0.31-, 0.62-, 0.94-, 1.24-, 2.48-, and 4.96-µM, C8 decreased the production of PGE2 induced by IL-1β by 26-, 48-, 49-, 54-, 68-, and 68-%, respectively (Fig. 4C). […] The effect of C8 was then evaluated at the extreme concentrations (0.31- and 4.96-µM) in DMEM supplemented with 2% FCS and containing decreasing (1-, 0.5-, and 0.25-ng/mL) IL-1β concentrations (Table 3). The anti-IL-1β inhibitory effect of C8 at 0.31 µM increases when IL-1β concentration decreases. […] This is probably due to the fact that at 4.96 µM, the inhibitory effect of C8 on IL-1β-induced PGE2 production is maximal. […] Thus, C8, but not C1, decreases the IL-1β-stimulated PGE2 secretion in a dose-dependent manner in the three culture medium compositions used.
Articular chondrocytes were isolated from 5-week-old Fauve de Bourgogne female rabbits (CPA, Orleans, France) and cultured at the first passage in conditions avoiding cell dedifferentiation as previously described. Cells were cultured at 37°C in 12-well plates in Ham's F-12 medium containing 10% FCS, 20 IU/mL penicillin, and 20 µg/mL streptomycin (all from Invitrogen) until nearly confluent. Then medium was replaced with DMEM (Invitrogen) containing 20 IU/mL penicillin, and 20 µg/mL streptomycin and, if necessary, 0.1% fatty acid free BSA (Sigma) or 2% FCS. At this time the C8 compound dissolved in DMSO (Sigma) was added to the medium (the amount of DMSO was kept at 1‰ (v/v) in all the wells). 1 h after the addition of C8, IL-1β (PeproTech) was added to the medium. Consequently, chondrocytes were incubated for 20 h with IL-1β and for 21 h with C8.
20 h after the addition of IL-1β to the chondrocytes, culture media were collected, and aliquots were stored at −80°C until PGE2 and nitrite quantification. PGE2 concentration in culture media was determined by use of an enzyme immunoassay (EIA) kit (PGE2 EIA Kit-monoclonal; Cayman Chemical). Nitrite concentration was determined by a spectrophotometry method based on the Griess reaction. Briefly, 200 µL of culture medium or sodium nitrite (NaNO2, Merck) standard dilutions were mixed with 100 µL Griess reagent [0.5% (w/v) sulphanilic acid (Merck), 0.05% (w/v) N(1-naphtyl)ethylenediamine (Merck), 30% (v/v) acetic acid, 1.5 N HCl] and incubated for 10 min at 50°C. The absorbance was measured at 540 nm.

Experiment [2] concerns COX-1/COX-2 protein ratio. As to the kind of experiment: COX-1/COX-2 protein ratio by scanning densitometry of western blots. To be noted: C8 0.31-1.24 µM in DMEM, IL-1β 20 h. The format is cell-based, rabbit. From the text: As expected, COX-1 protein was detectable but COX-2 and iNOS proteins were undetectable in untreated control conditions (Fig. 6A). […] Consequently, the protein ratio of COX-1 to COX-2 was not modified by C8 (Fig. 6B). […] Results from one representative experiment in five are shown. (B) Intensities of the COX-1 and COX-2 immunoreactive bands evaluated by semi-quantitative scanning densitometry. Data represent the COX-1/COX-2 protein ratio and are expressed as relative arbitrary units, where the IL-1β-treated group represents 1. Values are means ± SEM (n = 5 independent determinations). No significant differences were found between the groups. […] Cell lysates were centrifuged for 15 min at 14000 rpm at 4°C and supernatants were collected. Protein concentrations were determined by the Bradford method by use of the Protein Assay dye reagent (Bio-Rad). Protein extracts (20 µg) were size-separated by SDS-PAGE in a 10% (w/v) polyacrylamide gel and electroblotted to a nitrocellulose membrane. Equal protein loading and transfer was confirmed by staining the membrane with Ponceau Red [0.2% (w/v) in H2O:acetic acid 99∶1]. […] Immunocomplexes were detected by an enhanced chemiluminescence kit (Amersham Bioscience). […] Semi-quantitative scanning densitometry involved use of the ImageJ program (NIH, USA).

On to `O=c1[nH]c(Cc2ccc(OCCCCCOc3cc4ccccc4c4ccccc34)cc2)no1` [C8], for which the “C8 inhibitory effect (%inhibition) on PGE2 secretion” value in experiment [1] (C8 at 0.31 µM, IL-1β 0.25 ng/mL) was 67 %inhibition; in experiment [1] (C8 at 0.31 µM, IL-1β 0.5 ng/mL), 60 ^* %inhibition; in experiment [1] (C8 at 4.96 µM, IL-1β 0.25 ng/mL), 65 %inhibition; in experiment [1] (C8 at 4.96 µM, IL-1β 0.5 ng/mL), 67 ^* %inhibition; in experiment [1] (C8 at 4.96 µM, IL-1β 1 ng/mL) it was 68 ^*** %inhibition. Moreover, the “decrease of PGE2 production induced by IL-1β” value (shortened to “decrease”) in experiment [1] (DMEM + 0.1% BSA, C8 0.31 µM) amounted to 31%; in experiment [1] (DMEM + 0.1% BSA, C8 0.62 µM), 30%; in experiment [1] (DMEM + 0.1% BSA, C8 0.94 µM), 45%; in experiment [1] (DMEM + 0.1% BSA, C8 1.24 µM), 43%; in experiment [1] (DMEM + 0.1% BSA, C8 2.48 µM) it was 81%; in experiment [1] (DMEM + 0.1% BSA, C8 4.96 µM), 92%. In addition, the “decrease” value in experiment [1] (DMEM + 2% FCS, C8 0.31 µM) is 26%; in experiment [1] (DMEM + 2% FCS, C8 0.62 µM) it was 48%; in experiment [1] (DMEM + 2% FCS, C8 0.94 µM) it was 49%; in experiment [1] (DMEM + 2% FCS, C8 1.24 µM), 54%; in experiment [1] (DMEM + 2% FCS, C8 2.48 µM) it was 68%; in experiment [1] (DMEM + 2% FCS, C8 4.96 µM) it was 68%. Moreover, the “decrease” value in experiment [1] (DMEM alone, C8 0.31 µM) stood at 59%; in experiment [1] (DMEM alone, C8 0.62 µM), 58%; in experiment [1] (DMEM alone, C8 0.94 µM) it was 74%; in experiment [1] (DMEM alone, C8 1.24 µM) it was 80%. Besides, the “down-regulation of IL-1β-stimulated secretion of PGE2” value in experiment [1] (DMEM + 0.1% BSA, C8 4.96 µM) is “to the level of the control untreated condition”; in experiment [1] (DMEM + 2% FCS, C8 2.48 and 4.96 µM), “to the level of the control untreated condition”. Also, in experiment [2], the “effect on protein ratio of COX-1 to COX-2” value is listed as “not modified”.

Values taken from paper PMC2879362, “Design of Group IIA Secreted/Synovial Phospholipase A2 Inhibitors: An Oxadiazolone Derivative Suppresses Chondrocyte Prostaglandin E2 Secretion” (PLoS ONE, 2010).
